Active and inactive are the calls of the source.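 The calls were made as follows: active = compounds giving half or more protection of infected cells from virus-caused growth loss, again on retest; inactive = the rest.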 Where a SMILES comes first, the peptide text is derived from it. [ ]: non-standard residue; d: D form. The star is where a group is joined. ξ: configuration not given here. NMeF = CN[C@@H](Cc1ccccc1)C(=O)O; NMeV = CN[C@H](C(=O)O)C(C)C; ξNMeN = CNC(CC(N)=O)C(=O)O; NMeA = CN[C@@H](C)C(=O)O; ξNMeV = CNC(C(=O)O)C(C)C; Boc = CC(C)(C)OC(=O)*
System: CEM cells HIV-1 protection, formazan growth assay
Experiment: NCI AIDS Antiviral Assay
Settings: for IC50: measured here: growth of uninfected CEM cells
Outline: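 Steps: treat uninfected and HIV-1-infected human CEM cells at five drug levels; quantify growth by soluble formazan; retest any compound reaching 50% protection; classify actives from the retest.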

Row | SMILES | EC50 | IC50 | outcome
1 | COC(=O)[C@H](C)N(C)C(=O)C(CC(N)=O)N(C)C(=O)[C@H](Cc1ccccc1)N(C)C(=O)[C@@H]1CCCN1C(=O)[C@H](C(C)C)N(C)C(=O)C(C(C)C)N(C)C(=O)[C@@H](NC(=O)OC(C)(C)C)C(C)C (stereo not given in full) (Boc-V[ξNMeV][NMeV]P[NMeF][ξNMeN][NMeA]-OMe) | > 53.7 µM | 50.1 µM | 
2 | C=CCn1c(=S)[nH]c2c(Cl)cc(Cl)cc2c1=O | > 200 µM | 107 µM | 
3 | Cc1cc(=O)[nH]c(NN2C(Cl)C(=O)C2c2ccco2)n1 (stereo not given) | > 17.8 µM | > 17.8 µM | 
4 | CC(=O)OCC1OC(N2C(=O)NC(=O)C3C=C4CCCCC4=CC32)CC1OC(C)=O (stereo not given) | > 200 µM | 117 µM | 
5 | O=C1OC(=O)c2c1cc1cc3c(cc1c2-c1ccc2c(c1)OCO2)OCO3 |  |  | inactive
6 | COc1ccc(/C=C/C(=O)c2sc(N)nc2C)cc1 | > 912 µM | 479 µM | 
7 | CCOC(=O)/C(=C/c1ccccc1)N(CC)CC | > 55 µM | > 55 µM | 
8 | O=C1[C@@H]2C(c3c(Cl)cccc3Cl)=NO[C@@H]2C(=O)N1c1ccc(Cc2ccc(N3C(=O)[C@H]4C(c5c(Cl)cccc5Cl)=NO[C@H]4C3=O)cc2)cc1 | > 35.5 µM | > 35.5 µM | 
9 | Cc1ccc2c(c1)[nH]c(=S)n2/C=C1\C(=O)Oc2ccccc2C1=O | > 200 µM | 36.3 µM | 
10 | CC(C)CCC[C@@H](C)C1CCC2[C@@H]3CCC4CC(=C(c5cc(Cl)c(O)c(C(=O)O)c5)c5cc(Cl)c(O)c(C(=O)O)c5)CC[C@]4(C)C3CC[C@@]21C (stereo not given in full) | 47.9 µM | 148 µM | 
11 | NC(=O)CC(N)C(=O)NC(Cc1ccccc1)C(=O)NC(Cc1ccccc1)NC(=O)C(Cc1c[nH]c2ccccc12)C(=O)O (stereo not given) | > 200 µM | > 200 µM | 
12 | O=C1OCCc2c1[nH]c1ccccc21 | > 363 µM | 219 µM | 
13 | Cc1ccc(NC(=S)Nc2ccccc2C)nc1 | > 200 µM | 0.776 µM | 
14 | Cc1ccc(N=Nc2ccc(N(CCC#N)CCC#N)cc2C)c(Br)c1 | > 3.55 µM | > 3.55 µM | 
15 | O=Nc1c(O)[nH]c(=S)[nH]c1=O | > 148 µM | 115 µM | 
16 | Cc1ccc([N+](=O)[O-])cc1NC(=O)C(=O)C1CCC2=C(Sc3ccccc3N2)C1=O (stereo not given) | > 117 µM | > 117 µM | 
17 | Cc1cc(NS(=O)(=O)c2ccc(Nc3c4ccccc4nc4c(C(=O)NCCO)cccc34)cc2)no1 | > 200 µM | 12.6 µM | 
18 | CC(C)CC(NC=O)C(=O)NC(Cc1ccccc1)NC(=O)CNC(=O)C(C)NC(=O)OC(C)(C)C (stereo not given) | > 200 µM | > 200 µM | 
19 | COc1ccc(NS(=O)CCCc2ccccc2)cc1 (stereo not given) | > 200 µM | 16.6 µM | 
20 | O=C1CC2c3c(OCc4ccccc4)cccc3OC2O1 (stereo not given) | > 47.9 µM | > 47.9 µM | 
21 | [N-]=[NH+]CC(=O)OC(COCc1ccccc1)COCc1ccccc1 | > 200 µM | 117 µM | 
22 | CN1c2ccccc2C(=O)NC12CCN(CC1COc3ccccc3O1)CC2 (stereo not given) | > 200 µM | 89.1 µM | 

Row | SMILES | EC50 | IC50 | outcome
23 | O=C(Nc1ccccc1)C(c1ccccc1)N(Nc1ccccc1)c1ccccc1 (stereo not given) |  |  | inactive
24 | c1ccc([P+](CCOCC[P+](c2ccccc2)(c2ccccc2)c2ccccc2)(c2ccccc2)c2ccccc2)cc1 | > 200 µM | 49 µM | 
25 | O=C1c2cccc3cccc(c23)C(=O)N1CCCN1C(=O)c2cccc3cccc(c23)C1=O | > 200 µM | 110 µM | 
26 | Cc1cc(N(CCC#N)CCC#N)ccc1/C(N=Nc1ccc([N+](=O)[O-])cc1)=N\NC(=O)c1ccccc1 | > 200 µM | 16.2 µM | 
27 | Cc1nc(N/N=C/c2ccccc2Cl)[nH]c(=O)c1CCO | > 100 µM | > 100 µM | 
28 | O=C(Nc1cccc(F)c1)c1c(O)[nH]c(=S)[nH]c1=O | > 5.13 µM | > 5.13 µM | 
29 | Cc1nc(C(N)=S)sc1C(=O)CC(=O)C(=O)Nc1c(C(C)C)cccc1C(C)C | > 302 µM | 30.9 µM | 
30 | Nc1ccc(N=Nc2ccc(N=Nc3ccc(N=Nc4cc(S(=O)(=O)O)c5ccccc5c4O)c4ccc(S(=O)(=O)O)cc34)c3ccc(S(=O)(=O)O)cc23)cc1 |  |  | active
31 | CCOC(=O)CN(Cn1cncn1)Cn1cncn1 | > 200 µM | 28.8 µM | 
32 | Cn1c(=O)c2[nH]c(N=O)nc2n(C)c1=O | > 200 µM | > 200 µM | 
33 | O=C(O)c1ccccc1/C=C1\Cc2ccccc2C1=O | > 200 µM | 120 µM | 
34 | Nc1ccc(S(=O)(=O)NC(CSSCC(NS(=O)(=O)c2ccc(N)cc2)C(=O)O)C(=O)O)cc1 (stereo not given) | > 200 µM | > 200 µM | 
35 | COc1ccc2nc3ccccc3c(NCCCCCCN(CCCl)CCCl)c2c1 | > 0.2 µM | 0.162 µM | 
36 | CCOC(=O)c1c2c3c(cccc3[nH]c1=O)Sc1ncccc1-2 | > 200 µM | 15.8 µM | 
37 | N#Cc1cccc(/C=C2\Cc3ccccc3C2=O)c1 | > 5.89 µM | > 5.89 µM | 
38 | Cc1ccc2[nH]c3[nH]c(=O)[nH]c(=O)c3c2c1 | > 200 µM | > 200 µM | 
39 | O=C(Cc1ccccc1)N/N=C(/c1nc2ccc([N+](=O)[O-])cc2[nH]c1=O)C(O)c1ccccc1Cl (stereo not given) | > 72.4 µM | > 72.4 µM | 
40 | COc1ccc(C(c2c(O)c3ccccc3n(C)c2=O)c2c(O)c3ccccc3n(C)c2=O)cc1 | > 8.13 µM | > 8.13 µM | 
41 | Cc1ccc(-c2nc(-c3cnccn3)n(C3OC(CO)C(O)C(O)C3O)n2)cc1 (stereo not given) | > 200 µM | > 200 µM | 
42 | CCOC(=O)c1nc2ccc(C(F)(F)F)cc2nc1Oc1ccc(C(=O)OC)cc1 | > 200 µM | > 200 µM | 
43 | CCOC(=O)C1=C(OC(OCC)C(CC)[Se]c2ccccc2)CCC1 (stereo not given) | > 45.7 µM | > 45.7 µM | 
44 | CC(C)(c1cc(Cl)c(O)c(CN2CCOCC2)c1)c1cc(Cl)c(O)c(CN2CCOCC2)c1 | > 200 µM | 107 µM | 

Row | SMILES | EC50 | IC50 | outcome
45 | CC(C)(C)C(=O)C(c1ccc(-c2cscn2)cc1)c1ccc(-c2cscn2)cc1 | > 2.51 µM | > 2.51 µM | 
46 | CCO/N=C(/CC)c1ccc(Br)s1 | > 200 µM | 102 µM | 
47 | O=C1OCc2cc[n+]([O-])cc21 | > 1660 µM | > 1660 µM | 
48 | CSc1nc(NC(=O)c2ccc([N+](=O)[O-])cc2)c(C(=O)NC(C)C)s1 | > 200 µM | 138 µM | 
49 | COC(=O)c1c(-c2cc(OC)c(OC)c(OC)c2)oc2ccccc2c1=O | > 97.7 µM | 1.45 µM | 
50 | CCN1CC2(COC)C(O)CC(OC)C34C5CC6(O)C(OC)C=C(C5C6OC(=O)c5ccc(OC)c(OC)c5)C(C(OC)C23)C14 (stereo not given) |  |  | inactive
51 | CC1c2c(cc(=O)n(C)c2O)C(=O)N1Cc1ccccc1 (stereo not given) | > 347 µM | 257 µM | 
52 | CCCc1nc(NC#N)nc(C(=O)Nc2ccccc2)c1CC | > 407 µM | > 407 µM | 
53 | COc1ccc(S(=O)(=O)N/N=C(\C)CN2C(=O)c3ccccc3C2=O)cc1 | > 129 µM | > 129 µM | 
54 | COC(=O)N1C=CC2ON=C(OC)C2C1c1ccccc1 (stereo not given) | > 46.8 µM | > 46.8 µM | 
55 | C=CCNC(=S)/N=C\c1c(C)[nH]n(-c2ccccc2)c1=O | > 100 µM | 95.5 µM | 
56 | c1ccc(C2SCc3nc4cc5ccccc5cc4n32)cc1 (stereo not given) | > 200 µM | > 200 µM | 
57 | Cc1ccc(C)c(NC(=O)C(=O)CC(=O)c2cccc3ccccc23)c1 | > 105 µM | > 105 µM | 
58 | C=CC(=O)N1C/C(=C\c2ccc(Cl)cc2)C(=O)/C(=C/c2ccc(Cl)cc2)C1 | > 0.2 µM | 0.0708 µM | 
59 | CCOC(=O)/C(C#N)=C/c1c[nH]c2ccccc12 | > 200 µM | 158 µM | 
60 | CSC(=Nc1ccc([N+](=O)[O-])cc1C#N)NC(=O)c1ccccc1 |  |  | inactive
61 | CCCCOC(=O)C1OC12CCCCC2 (stereo not given) | > 200 µM | 151 µM | 
62 | CC(C)C(/C=C/c1ccc(Cl)cc1)=N\NC(=O)N/N=C(/C=C/c1ccc(Cl)cc1)C(C)C | > 100 µM | > 100 µM | 
63 | CSc1n[nH]c(N)c1C(=O)Nc1ccc(C)cc1 | > 200 µM | 95.5 µM | 
64 | NC1=N/N=C(c2ccccc2)\C=C/C(c2ccccc2)=N\1 | > 19.1 µM | > 19.1 µM | 
65 | CCSCCCSCCSCC | > 158 µM | > 158 µM | 
66 | CCOC(=O)C(C1=C(O)c2ccccc2C(=O)C1=O)C1=C(O)c2ccccc2C(=O)C1=O | > 200 µM | 67.6 µM | 

Row | SMILES | EC50 | IC50 | outcome
67 | C/C(O)=c1\cc(C#N)c(=C(C#N)C#N)nc1C |  |  | inactive
68 | Clc1nc(NC2CCCCC2)nc(NC2CCCCC2)n1 |  |  | inactive
69 | COc1cc(/C=N/c2nncs2)ccc1O | > 79.4 µM | > 79.4 µM | 
70 | CCOC(=O)C12C3C(=O)N(CC)C(=O)C3ON1OC1C(=O)N(CC)C(=O)C12 (stereo not given) | > 661 µM | 81.3 µM | 
71 | C=Cc1ccc(CC)cn1 | > 200 µM | > 200 µM | 
72 | CCOP(=S)(NN=C1CCCCC1)OCC | > 200 µM | 112 µM | 
73 | O=c1oc(C(C(F)(F)F)C(F)(F)F)nc2ccccc12 | > 200 µM | > 200 µM | 
74 | CNP(=S)(Oc1cc(Cl)c(Cl)cc1Cl)N1CCN(c2ccc(Cl)cc2)CC1 (stereo not given) | > 36.3 µM | 21.4 µM | 
75 | NC(CSS(=O)(=O)O)=NCC1CC2CCC1C2 (stereo not given) | > 200 µM | 91.2 µM | 
76 | CC(O)CCNc1nnc2c3ccccc3n(C)c2n1 (stereo not given) | > 200 µM | > 200 µM | 
77 | Cc1cn(COCCOS(C)(=O)=O)c(=O)[nH]c1=O | > 200 µM | > 200 µM | 
78 | COc1ccc2c(c1)CCN1CCCc3ccc(OC)cc3C21 (stereo not given) | > 200 µM | 51.3 µM | 
79 | O=Cc1ccccc1OCCC[P+](c1ccccc1)(c1ccccc1)c1ccccc1 | > 200 µM | 2.51 µM | 
80 | CC(C)CN(CC(=O)Nc1cccc(Cl)c1)CC(C)C | > 200 µM | 141 µM | 
81 | O=C(NC(Cc1c[nH]c2ccccc12)C(=O)O)/C(=C/c1ccccc1)NC(=O)c1ccccc1 (stereo not given) | > 200 µM | 135 µM | 
82 | COc1ccc(/C(C)=N/NC(=O)c2ccncc2)cc1OC | > 437 µM | > 437 µM | 
83 | COc1ccc(C2SCC(=O)N2c2ccc(-n3c(-c4ccccc4)nc4ccccc4c3=O)cc2)cc1OC (stereo not given) | > 200 µM | > 200 µM | 
84 | C=CCNc1ncnc2sc(SC)nc12 | > 200 µM | 107 µM | 
85 | BrC12C3C4C5C(C(C43)C13OCCO3)C52 (stereo not given) | > 708 µM | > 708 µM | 
86 | C(=C1/NC(c2ccccc2)=Nc2ccccc21)/c1ccccc1 | > 6.76 µM | > 6.76 µM | 
